Assay results reported in PubChem BioAssay (NCI).
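1) Cells in 96-well plates. 2) Compound, 48 h, 5 concentrations. 3) Linear interpolation between surrounding doses. 4) Unreached endpoint = highest concentration. TGI denotes the concentration required for complete inhibition of growth.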

Legend:
Assay in all cases: NCI tumour cell line growth inhibition, 48 h
786-0 renal = system: 786-0 renal
SN12C renal = system: SN12C renal
MDA-MB-435 = system: MDA-MB-435
KM12 colon = system: KM12 colon
CCRF-CEM leukemia = system: CCRF-CEM leukemia
SK-MEL-28 melanoma = system: SK-MEL-28 melanoma
MDA-MB-231 breast = system: MDA-MB-231 breast
OVCAR-3 ovarian = system: OVCAR-3 ovarian
SR leukemia = system: SR leukemia
HOP-92 NSCLC = system: HOP-92 NSCLC
MALME-3M melanoma = system: MALME-3M melanoma
HS 578T breast = system: HS 578T breast
SF-268 CNS = system: SF-268 CNS
NCI-H23 lung = system: NCI-H23 lung
SK-MEL-2 melanoma = system: SK-MEL-2 melanoma
MCF7 breast = system: MCF7 breast
HCT-116 colon = system: HCT-116 colon
HOP-62 NSCLC = system: HOP-62 NSCLC
SF-295 CNS = system: SF-295 CNS
M14 melanoma = system: M14 melanoma
T-47D breast = system: T-47D breast
RPMI-8226 leukemia = system: RPMI-8226 leukemia
A498 renal = system: A498 renal
EKVX NSCLC = system: EKVX NSCLC
PC-3 prostate = system: PC-3 prostate
COLO 205 colon = system: COLO 205 colon
SNB-19 CNS = system: SNB-19 CNS
OVCAR-4 ovarian = system: OVCAR-4 ovarian
HCT-15 colon = system: HCT-15 colon
NCI-H460 lung = system: NCI-H460 lung
NCI-H226 lung = system: NCI-H226 lung
UACC-257 melanoma = system: UACC-257 melanoma
K-562 leukemia = system: K-562 leukemia
UACC-62 melanoma = system: UACC-62 melanoma
UO-31 renal = system: UO-31 renal
HL-60(TB) leukemia = system: HL-60(TB) leukemia
BT-549 breast = system: BT-549 breast
HT29 colon = system: HT29 colon
DU-145 prostate = system: DU-145 prostate
OVCAR-8 ovarian = system: OVCAR-8 ovarian
NCI/ADR-RES ovarian = system: NCI/ADR-RES ovarian
A549 NSCLC = system: A549 NSCLC
SK-OV-3 ovarian = system: SK-OV-3 ovarian
MDA-N = system: MDA-N
OVCAR-5 ovarian = system: OVCAR-5 ovarian
IGROV1 ovarian = system: IGROV1 ovarian
MOLT-4 leukemia = system: MOLT-4 leukemia
TK-10 renal = system: TK-10 renal
ACHN renal = system: ACHN renal
HCC-2998 colon = system: HCC-2998 colon
SK-MEL-5 melanoma = system: SK-MEL-5 melanoma
U251 CNS = system: U251 CNS
LOX IMVI melanoma = system: LOX IMVI melanoma
SF-539 CNS = system: SF-539 CNS
CAKI-1 renal = system: CAKI-1 renal
NCI-H522 lung = system: NCI-H522 lung
RXF 393 renal = system: RXF 393 renal
SNB-75 CNS = system: SNB-75 CNS
SW-620 colon = system: SW-620 colon

## Cc1ccc(N2C(=O)C(O)=C(C(=O)C(C)(C)C)C2c2ccc([N+](=O)[O-])cc2)cc1 (stereo unspecified)
786-0 renal
  TGI: 39.9 µM
SN12C renal
  TGI: 52.8 µM
MDA-MB-435
  TGI: 44.7 µM
KM12 colon
  TGI: 67.3 µM
CCRF-CEM leukemia
  TGI: > 100 µM
SK-MEL-28 melanoma
  TGI: 63.6 µM
MDA-MB-231 breast
  TGI: 45.7 µM
OVCAR-3 ovarian
  TGI: 93.5 µM
SR leukemia
  TGI: 24.7 µM
HOP-92 NSCLC
  TGI: 59.5 µM
MALME-3M melanoma
  TGI: 46 µM
HS 578T breast
  TGI: 45.3 µM
SF-268 CNS
  TGI: 47.8 µM
NCI-H23 lung
  TGI: 35.2 µM
SK-MEL-2 melanoma
  TGI: 58.5 µM
MCF7 breast
  TGI: 37.6 µM
HCT-116 colon
  TGI: 29.4 µM
HOP-62 NSCLC
  TGI: 49.2 µM
SF-295 CNS
  TGI: 88.8 µM
M14 melanoma
  TGI: 46.2 µM
T-47D breast
  TGI: 52.5 µM
RPMI-8226 leukemia
  TGI: 49.4 µM
A498 renal
  TGI: 68.9 µM
EKVX NSCLC
  TGI: 67.1 µM
PC-3 prostate
  TGI: > 100 µM
COLO 205 colon
  TGI: 32.3 µM
SNB-19 CNS
  TGI: > 100 µM
OVCAR-4 ovarian
  TGI: 22.3 µM
HCT-15 colon
  TGI: 47.4 µM
NCI-H460 lung
  TGI: 30.5 µM
NCI-H226 lung
  TGI: 43.3 µM
UACC-257 melanoma
  TGI: 34.8 µM
K-562 leukemia
  TGI: 85.2 µM
UACC-62 melanoma
  TGI: 37.2 µM
UO-31 renal
  TGI: 89.3 µM
HL-60(TB) leukemia
  TGI: 33.9 µM
BT-549 breast
  TGI: 39 µM
HT29 colon
  TGI: 37.3 µM
DU-145 prostate
  TGI: > 100 µM
OVCAR-8 ovarian
  TGI: 59.1 µM
NCI/ADR-RES ovarian
  TGI: 53.8 µM
A549 NSCLC
  TGI: 82.5 µM
SK-OV-3 ovarian
  TGI: 57.2 µM
MDA-N
  TGI: 69.2 µM
OVCAR-5 ovarian
  TGI: > 100 µM
IGROV1 ovarian
  TGI: 43.7 µM
MOLT-4 leukemia
  TGI: 31.5 µM
TK-10 renal
  TGI: 90.8 µM
ACHN renal
  TGI: 45.9 µM
HCC-2998 colon
  TGI: 45.4 µM
SK-MEL-5 melanoma
  TGI: 30 µM
U251 CNS
  TGI: > 100 µM
LOX IMVI melanoma
  TGI: 36.9 µM
SF-539 CNS
  TGI: 63 µM
CAKI-1 renal
  TGI: 16.5 µM

## NC(N)=N/N=C(/c1ccccc1)c1ccc(O)cc1O
786-0 renal
  TGI: 96.4 µM
SN12C renal
  TGI: 91 µM
MDA-MB-435
  TGI: > 100 µM
KM12 colon
  TGI: > 100 µM
SK-MEL-28 melanoma
  TGI: > 100 µM
MDA-MB-231 breast
  TGI: > 100 µM
OVCAR-3 ovarian
  TGI: > 100 µM
SR leukemia
  TGI: 60.8 µM
HOP-92 NSCLC
  TGI: > 100 µM
MALME-3M melanoma
  TGI: > 100 µM
HS 578T breast
  TGI: 80.3 µM
SF-268 CNS
  TGI: > 100 µM
NCI-H23 lung
  TGI: > 100 µM
SK-MEL-2 melanoma
  TGI: > 100 µM
MCF7 breast
  TGI: > 100 µM
HCT-116 colon
  TGI: > 100 µM
HOP-62 NSCLC
  TGI: > 100 µM
SF-295 CNS
  TGI: > 100 µM
M14 melanoma
  TGI: 58.7 µM
T-47D breast
  TGI: > 100 µM
RPMI-8226 leukemia
  TGI: 79.8 µM
A498 renal
  TGI: 61.7 µM
EKVX NSCLC
  TGI: 64.7 µM
PC-3 prostate
  TGI: > 100 µM
COLO 205 colon
  TGI: 33.2 µM
SNB-19 CNS
  TGI: > 100 µM
NCI-H522 lung
  TGI: 34.5 µM
OVCAR-4 ovarian
  TGI: > 100 µM
HCT-15 colon
  TGI: > 100 µM
NCI-H460 lung
  TGI: 88.4 µM
NCI-H226 lung
  TGI: > 100 µM
UACC-257 melanoma
  TGI: > 100 µM
RXF 393 renal
  TGI: > 100 µM
K-562 leukemia
  TGI: > 100 µM
UACC-62 melanoma
  TGI: > 100 µM
UO-31 renal
  TGI: > 100 µM
BT-549 breast
  TGI: > 100 µM
HT29 colon
  TGI: 39.2 µM
DU-145 prostate
  TGI: > 100 µM
OVCAR-8 ovarian
  TGI: 59.2 µM
NCI/ADR-RES ovarian
  TGI: > 100 µM
SNB-75 CNS
  TGI: > 100 µM
A549 NSCLC
  TGI: > 100 µM
SK-OV-3 ovarian
  TGI: > 100 µM
MDA-N
  TGI: 28.6 µM
OVCAR-5 ovarian
  TGI: > 100 µM
IGROV1 ovarian
  TGI: > 100 µM
TK-10 renal
  TGI: > 100 µM
ACHN renal
  TGI: > 100 µM
HCC-2998 colon
  TGI: 32 µM
SK-MEL-5 melanoma
  TGI: 65.8 µM
U251 CNS
  TGI: 57.3 µM
LOX IMVI melanoma
  TGI: > 100 µM
SF-539 CNS
  TGI: 39 µM
SW-620 colon
  TGI: > 100 µM
CAKI-1 renal
  TGI: > 100 µM

## S=C1NC2=C(COC/C2=C\c2ccccc2Cl)C(c2ccccc2Cl)N1 (stereo unspecified)
786-0 renal
  TGI: > 100 µM
SN12C renal
  TGI: > 100 µM
MDA-MB-435
  TGI: > 100 µM
KM12 colon
  TGI: 28.6 µM
CCRF-CEM leukemia
  TGI: 45.1 µM
MDA-MB-231 breast
  TGI: > 100 µM
OVCAR-3 ovarian
  TGI: > 100 µM
SR leukemia
  TGI: 20.9 µM
HOP-92 NSCLC
  TGI: > 100 µM
HS 578T breast
  TGI: > 100 µM
SF-268 CNS
  TGI: > 100 µM
NCI-H23 lung
  TGI: > 100 µM
SK-MEL-2 melanoma
  TGI: 67.1 µM
MCF7 breast
  TGI: 63.1 µM
HCT-116 colon
  TGI: 80.6 µM
HOP-62 NSCLC
  TGI: > 100 µM
SF-295 CNS
  TGI: > 100 µM
M14 melanoma
  TGI: > 100 µM
T-47D breast
  TGI: > 100 µM
RPMI-8226 leukemia
  TGI: > 100 µM
A498 renal
  TGI: > 100 µM
EKVX NSCLC
  TGI: > 100 µM
PC-3 prostate
  TGI: > 100 µM
COLO 205 colon
  TGI: 33.5 µM
SNB-19 CNS
  TGI: > 100 µM
NCI-H522 lung
  TGI: > 100 µM
OVCAR-4 ovarian
  TGI: > 100 µM
HCT-15 colon
  TGI: > 100 µM
NCI-H460 lung
  TGI: > 100 µM
NCI-H226 lung
  TGI: > 100 µM
UACC-257 melanoma
  TGI: > 100 µM
RXF 393 renal
  TGI: > 100 µM
K-562 leukemia
  TGI: > 100 µM
UACC-62 melanoma
  TGI: > 100 µM
UO-31 renal
  TGI: > 100 µM
HL-60(TB) leukemia
  TGI: 34.4 µM
BT-549 breast
  TGI: > 100 µM
DU-145 prostate
  TGI: > 100 µM
OVCAR-8 ovarian
  TGI: > 100 µM
NCI/ADR-RES ovarian
  TGI: > 100 µM
SNB-75 CNS
  TGI: > 100 µM
SK-OV-3 ovarian
  TGI: > 100 µM
MDA-N
  TGI: > 100 µM
OVCAR-5 ovarian
  TGI: > 100 µM
IGROV1 ovarian
  TGI: > 100 µM
MOLT-4 leukemia
  TGI: 44.5 µM
TK-10 renal
  TGI: > 100 µM
ACHN renal
  TGI: > 100 µM
HCC-2998 colon
  TGI: 89 µM
SK-MEL-5 melanoma
  TGI: 34.6 µM
U251 CNS
  TGI: > 100 µM
LOX IMVI melanoma
  TGI: 70.7 µM
SF-539 CNS
  TGI: > 100 µM
SW-620 colon
  TGI: > 100 µM
CAKI-1 renal
  TGI: > 100 µM
